# Measured values taken from patent publication US20170065561A1, “METHODS OF CANCER THERAPY” (CAMBRIDGE ENTERPRISE LIMITED, priority 2014, published 2017).
# Entries after “also recorded” stand apart in the source; their conditions may differ.
# Columns and labels:
# [1] = tested on: plasma glucosylceramide (GL-1); test: Short-term dose-range experiment in GD mice: plasma glucosylceramide; assay type: in vivo, mouse; details: 6 week-old GD mice, 150 mg/kg and 300 mg/kg orally for two weeks
# Experimental: (§1) The inducible mouse model of type 1 Gaucher disease [Gba^tm1Karl/tm1KarlTg (Mx1-cre) 1Cgn/0 (MGI:3687965; MGI:2176073)[41]. The mating, induction with polyinosinic-polycytidylic (poly I:C) acid sodium salt solution and genotyping were conducted as previously described. Animals of genotype Gba^tm1Karl/tm1KarlTg (Mx1-cre) 1Cgn/0 are referred GD mice; induced mice with the Gba^tm1Karl/tm1Karl and Gba^tm1Karl/+ genotypes and background strain wild type animals served as age-matched controls. All mice here reported had been bred on a C57BL/6 and 129/sv background.
# The drug GENZ 112638 (Genzyme) was formulated in a standard rodent food (TestDiet) at 0.075% and 0.15% w/w. A group of six GD mice received 150 mg/kg daily, a second group of six GD mice received the drug at 300 mg/kg daily, and eight age-sex matched GD animals were given a base diet (TestDiet). The animals received the drug for 14 days and were then killed for analysis of tissue lipids.
# (§2) Concentrations of β-D-glucosylceramide in plasma in the short-term tolerability study were conducted as previously published. β-D-glucosylceramide, β-D-glucosylsphingosine and ceramide concentrations in tissues and plasma samples of the principal intervention and delayed-treatment experiments were quantified as previously reported.
# [2] = tested on: plasma β-D-glucosylceramide; test: Main treatment experiments in GD mice: plasma glucosylceramide; assay type: in vivo, mouse
# Experimental: as §1
# (§3) GENZ 112638 was introduced at a mean age of 1.5 months, with access to the diet and water ad libitum. All experimental animals were housed in individually ventilated cages in groups of up to three mice within the same environmental conditions. The health of the animals was checked daily; body weights and food consumption were monitored at intervals of three days. The humane endpoints were approved and established: (i) reduction of 20% or more of the greatest recorded body weight or (ii) the development of adverse manifestations (e.g. development of frank tumours or cachexia).
# as §2
# [3] = tested on: plasma ceramide; test: Main treatment experiments in GD mice: plasma ceramide; assay type: in vivo, mouse; details: GD mice receiving the high dose
# Experimental: as §1
# GENZ 112638 was introduced at a mean age of 1.5 months, with access to the diet and water ad libitum. […] The health of the animals was checked daily; body weights and food consumption were monitored at intervals of three days. The humane endpoints were approved and established: (i) reduction of 20% or more of the greatest recorded body weight or (ii) the development of adverse manifestations (e.g. development of frank tumours or cachexia).
# as §2
# [4] = mouse, in vivo, 300 mg/kg
# Description: as §3
# [5] = tested on: Gaucher mice; test: Main treatment experiments: plasma/serum protein electrophoresis and immunofixation (monoclonal immunoglobulin species); assay type: in vivo, mouse; details: for detectable monoclonal paraprotein species: GD mice, early administration from six weeks of age; for M-protein (number of mice): 300 mg/Kg daily months 1.5-12
# Experimental: (§4) Plasma/serum protein electrophoresis was carried out in agarose gels using a semiautomatic system (Hydrasys, Sebia) using 10 μL samples of neat serum or plasma. Immunofixation using polyclonal anti-sera raised against murine heavy and light immunoglobulin chains was conducted with diluted serum samples as previously reported.
# The non-parametric Mann-Whitney test was used for between-groups comparisons. The Fisher's exact test was used for comparison of the occurrence of lymphoma or plasma paraprotein in treated and untreated groups. Statistical analyses were conducted using GraphPad Prism v5.0 software.
# [6] = tested on: plasma IgG; test: Total IgG plasma concentrations (ELISA); assay type: in vivo, mouse; details: treated GD mice
# Description: Total IgG ELISA kit (Affimetrix) was used to determine plasma IgG concentrations in selected groups of animals.
# [7] = tested on: plasma glucosylceramide; test: Delayed treatment experiments: plasma glucosylceramide; assay type: in vivo, mouse; details: delayed treatment: mean age 7.3 months, 300 mg/kg daily for 5.4 months
# Experimental: (§5) To investigate the potential effects of delayed treatment, eight Gaucher mice were exposed to Genz-112638 after 6 months of age. The animals received the drug for 6 months at a dose 300 mg/kg daily and were killed at 12 months of age (FIG. 1). A group of eight matched Gaucher disease control mice were given the base standard diet; these animals were monitored and otherwise treated identically with those animals with delayed exposure to the study drug.
# as §2
# [8] = tested on: plasma glucosylsphingosine; test: Delayed treatment experiments: plasma glucosylsphingosine; assay type: in vivo, mouse; details: delayed treatment: mean age 7.3 months, 300 mg/kg daily for 5.4 months
# Experimental: as §5, §2
# [9] = tested on: GD mice; test: Delayed treatment experiments: M protein species (electrophoresis and immunofixation); assay type: in vivo, mouse; details: delayed treatment: 300 mg/Kg daily months 7-12, age group 12-18 months
# Experimental: as §5, §4
# [10] = biological target: T1, 1-O-acylceramide synthase (Homo sapiens, UniProt Q8NCC3); details: cited from earlier work
# T1 sequence (Q8NCC3 34-412): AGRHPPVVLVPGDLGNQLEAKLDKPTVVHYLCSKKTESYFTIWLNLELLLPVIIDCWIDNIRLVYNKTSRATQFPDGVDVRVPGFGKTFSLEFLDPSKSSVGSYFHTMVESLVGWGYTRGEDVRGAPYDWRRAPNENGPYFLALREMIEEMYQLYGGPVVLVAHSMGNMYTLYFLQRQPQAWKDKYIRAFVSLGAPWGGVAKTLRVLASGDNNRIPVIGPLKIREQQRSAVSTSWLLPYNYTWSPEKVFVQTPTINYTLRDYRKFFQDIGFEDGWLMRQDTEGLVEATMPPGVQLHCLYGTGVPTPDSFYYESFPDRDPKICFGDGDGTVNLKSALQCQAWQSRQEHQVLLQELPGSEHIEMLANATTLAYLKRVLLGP
# [11] = tested on: glycosidases and other enzymes involved in sphingolipid metabolism; details: in vitro; cited from earlier work
# [12] = tested on: (GBA^D409/null) knock-in model of Gaucher disease; details: 75 or 150 mg/kg daily orally for 10 weeks, cited from earlier work
# [13] = tested on: individuals with non-neuronopathic Gaucher disease; details: Phase III, over two years, oral; cited from earlier work
# [14] = in vivo; cited from earlier work
# [15] = tested on: GD mice; test: Main treatment experiments: histology and immunohistochemistry of tissues; details: for plasma-cell (CD138+) infiltration in the red pulp of the spleen: treated versus age-matched untreated GD mice
# Experimental: A total of 22 induced Gaucher disease mice received GENZ 112638 at 300 mg/kg daily: four mice received the treatment over 3 months, four mice received the drug for 6 months, six mice received the diet for 7-9 months. […] A group of 8 mice received the drug for 10 months and were killed at 14 months of age. To serve as a control group, 45 age- and sex-matched induced Gaucher mice were given a standard diet.
# Visceral organs (spleen, liver, lungs and kidneys) as well as long bones, lymph nodes, and, where relevant, tumours, were collected by dissection and either frozen or fixed in 4% w/v paraformaldehyde or 10% buffered formalin and processed in paraffin-embedded blocks for further analysis. Sample of long bones were fixed in 4% w/v paraformaldehyde and decalcified in EDTA for two weeks. Spleen and liver weights were recorded fresh at post mortem. Samples of venous blood were collected from the tail vein at 3 monthly intervals during the experimental protocol. Complete blood counts (CBC) were determined using an automated haematology analyser (SYSMEX XT 2000i). EDTA plasma or serum samples collected at post mortem were stored at −80° C. until thawed for analysis.
# Paraffin-embedded sections of 3.5 μm were stained routinely with haematoxylin and eosin. Immunohistochemical staining was carried out using rat anti-mouse CD45R/B220 (R&D systems), anti-mouse CD3 (Abcam), CD138 (BD, Pharmingen), rat anti-mouse Mac-3 M3/84 clone (BD, Pharmingen) and rabbit anti-mouse Ki-67 (Abcam) primary antibodies. Staining was realized by the avidin-biotin peroxidase technique (Vectastatin ABC elite kit), and developed using diaminobenzidine with cresyl violet or haematoxylin counterstaining.
# Lymphoproliferation in serial sections of spleen, liver, lungs and kidneys was estimated by a scoring system modified as described by Elmore [42]. Sections were reviewed blindly for lymphoma and lymphoproliferative reactions by a board-certified veterinary pathologist.
substance,measurement,setting,value
"bis{N-[(1R,2R)-2-(2,3-dihydro-1,4-benzodioxin-6-yl)-2-hydroxy-1-(pyrrolidin-1-ylmethyl)ethyl]octanamide} (2R,3R)-2,3-dihydroxybutanedioate [eliglustat tartrate]",plasma glucosylceramide (GL-1) concentration,[1],decrease the concentration of glucosylceramide
same,plasma glucosylceramide (GL-1) concentration,[1]; listed as GENZ 112638,dose-dependent decrease
same,glucosylceramide concentration in plasma,"[2]; GD mice with intermittent treatment for 10 months, listed as GENZ 112638",raised above the reference range
same,glucosylceramide concentration in plasma,"[2]; GD mice with intermittent treatment for 10 months, listed as Genz-112638",increased plasma concentration
same,plasma β-D-glucosylceramide concentration,"[2]; GD mice, 300 mg/kg daily, early continuous treatment",decreased
same,glucosylceramide concentration in plasma,"[2]; GD mice, after 10 months treatment, p<0.01",reduced
same,glucosylceramide/ceramide ratio,[2]; treated GD animals compared with untreated,markedly diminished
same,mean plasma ceramide concentrations,[3],slightly increased
same,animals withdrawn early from the study as a result of weight loss,[4],Two
same,detectable monoclonal paraprotein species,[5]; listed as GENZ 112638,suppressed the appearance
same,detectable monoclonal paraprotein species,[5]; listed as Genz-112638,none and prevents development of monoclonal paraproteins
same,M-protein (number of mice),"[5]; age group 0-6 months, total 4 mice",0
same,M-protein (number of mice),"[5]; age group 7-12 months, total 10 mice",0
same,M-protein (number of mice),"[5]; age group 13-18 months, total 8 mice",0
same,M-protein (number of mice),"[5]; all age groups, total 22 mice",0
same,total plasma immunoglobulin G concentrations,[6],decreased significantly
same,plasma concentration of glucosylceramide,[7],decreased
same,plasma concentration of glucosylsphingosine,[8],decreased
same,M protein (number of mice with monoclonal paraprotein or oligoclonal immunoglobulin secretion),[9],5
same,M protein (number of mice with monoclonal paraprotein or oligoclonal immunoglobulin secretion),[9]; listed as GENZ 112638,five
same,inhibition of 1-O-acylceramide synthase,[10],does not inhibit 1-O-acylceramide synthase
same,inhibitory properties towards glycosidases and other enzymes involved in sphingolipid metabolism,[11],minimal inhibitory properties
same,glucosylceramide in tissues,[12]; 10 week-old and 7 month-old mice,dose-dependent reduction
same,infiltration of abnormal macrophages in tissues,[12],decreased infiltration
same,key clinical manifestations of the disease,[13],clearly improved
same,safety and tolerability,[14],safe and tolerable
same,"Ki-67 staining (proliferation marker), spleen","[15]; GD mice treated for 10 months, listed as Genz-112638",less evident; also recorded: decreased population of lymphoid cells
same,lipid-engorged macrophages in tissue sections,"[15]; GD mice, liver and spleen",fewer lipid-engorged macrophages
same,pathological macrophages staining for the Mac 3 antigen,"[15]; tissues of GD mice, listed as GENZ 112638",markedly decreased or absent; also recorded: prevented the florid appearance of pathological macrophages
same,cellularity of the spleens,[15]; treated Gaucher mice,slight decrease
same,plasma-cell (CD138+) infiltration in the red pulp of the spleen,[15]; listed as GENZ 112638,less evident
same,plasma-cell (CD138+) infiltration in the red pulp of the spleen,[15]; listed as Genz-112638,decreased number of CD138^+ lymphocytes
same,"inflammatory changes in the liver, lungs and kidneys",[15]; treated versus untreated GD mice,reduced or absent
same,splenic architecture (H&E; B220/CD3 staining),"[15]; treated versus untreated GD mice, listed as GENZ 112638",preservation of the splenic architecture
same,splenic architecture (H&E; B220/CD3 staining),"[15]; treated versus untreated GD mice, listed as Genz-112638",preserved white pulp architecture
same,spleen and liver weights,[15]; treated versus untreated Gaucher mice,did not differ
